Test results published in article PMC5643462, “Encrypted Antimicrobial Peptides from Plant Proteins” (Scientific Reports, 2017).
≈ marks a conversion by molar mass, not a printed value. Like-named read-outs stand apart in the source and are kept apart here. No end group written: not given here.

Tests used:
Candida albicans = test: microbe, parasite or virus in culture; details: for Minimum inhibitory concentration, Candida albicans: ATCC 90028, RPMI 1640 pH 7.0, 37 °C, 48 h, start 2.5 x 10^3 cells, 256-0.5 µM, mean ± SD of 3 biological repetitions (SD 0 not displayed), no cells seen by optical microscopy, N/A = no antimicrobial activity observed
Protocol: (§1) The susceptibility test of microorganisms was performed to evaluate the inhibitory activity of the IAPs. Protocols M7-A10[50], M27-A3[51] and M38-A2[52] from Clinical & Laboratory Standards Institute (CLSI) were used for bacteria, yeasts and filamentous fungi tests, respectively. Briefly, different concentration of IAPs (256-0.5 µM) were tested against 16 microorganisms, in a final volume of 100 µL. Media conditions, final cell concentration and incubation conditions are presented in Supplementary Material 07, Table S5. Three biological repetitions, with 2 technical replicates each, were performed for each test, on polystyrene flat-bottom 96 wells microplates. The minimum inhibitory concentration (MIC) was defined as the concentration that no cells/hyphae were detected when visualized by optical microscopy.
(§2) Supplementary Material 07, Table S5
(§3) Table S5. Microorganisms and growth conditions.

Cryptococcus neoformans = test: microbe, parasite or virus in culture; details: for Minimum inhibitory concentration, Cryptococcus neoformans: ATCC 28957, RPMI 1640 pH 7.0, 37 °C, 72 h, start 2.5 x 10^3 cells, 256-0.5 µM, mean ± SD of 3 biological repetitions (SD 0 not displayed), N/A = no antimicrobial activity observed
Protocol: as §1, §2, §3

Bacillus cereus = test: microbe, parasite or virus in culture; details: ATCC 14579; Mueller-Hinton; 37 °C, 24 h; start 5.0 x 10^5 cells; 256-0.5 µM; mean ± SD of 3 biological repetitions (SD 0 not displayed); N/A = no antimicrobial activity observed
Protocol: as §1, §2, §3

Bacillus subtilis = test: microbe, parasite or virus in culture; details: ATCC 23857; Mueller-Hinton; 37 °C, 24 h; start 5.0 x 10^5 cells; 256-0.5 µM; mean ± SD of 3 biological repetitions (SD 0 not displayed); N/A = no antimicrobial activity observed
Protocol: as §1, §2, §3

Escherichia coli = test: microbe, parasite or virus in culture; details: ATCC 25922; Mueller-Hinton; 37 °C, 24 h; start 5.0 x 10^5 cells; 256-0.5 µM; mean ± SD of 3 biological repetitions (SD 0 not displayed); N/A = no antimicrobial activity observed
Protocol: as §1, §2, §3

Pseudomonas aeruginosa = test: microbe, parasite or virus in culture; details: ATCC 27853; Mueller-Hinton; 37 °C, 24 h; start 5.0 x 10^5 cells; 256-0.5 µM; mean ± SD of 3 biological repetitions (SD 0 not displayed); N/A = no antimicrobial activity observed
Protocol: as §1, §2, §3

Staphylococcus aureus = test: microbe, parasite or virus in culture; details: ATCC 25923; Mueller-Hinton; 37 °C, 24 h; start 5.0 x 10^5 cells; 256-0.5 µM; mean ± SD of 3 biological repetitions (SD 0 not displayed); N/A = no antimicrobial activity observed
Protocol: as §1, §2, §3

human red blood cells = test: Cytotoxicity: hemolysis of human red blood cells; type: cell-based
Protocol: The cytotoxicity of the selected IAPS was performed using human red blood cells in strict accordance with relevant guidelines and regulations (Ethical committee – UnB # 1.939.989). Different concentrations of IAPs (128 µM–0.5 µM) were incubated with a final concentration of 2.5 × 10^5 red blood cells.mL^−1. Briefly, 100 µL of red blood cells was incubated with 100 µL of different concentrations of each IAP, prepared in PBS, for 30 minutes at 37 °C, with constant shaking at 120 rpm. PBS and Triton X-100 0.1% (v/v) were used as negative and positive controls, respectively. After incubation, the solution was centrifuged at 900 × g for five minutes followed by transferring 50 µL of the supernatant to flat-bottom polystyrene 96-well micro plates containing 50 µL of PBS. Microplate reading was performed at a BioTek Multireader, using a wavelength of 540 nm. All tests were performed in 3 biological replicates, composed of 3 biological repetitions each. The obtained data was subtracted by the negative control and relative to the positive control, defined as 100% lysis.

[1] = system: Moniliophthora perniciosa basidiospores; test: Inhibition of M. perniciosa basidiospore germination; type: cell-based; details: 1 × 10^6 basidiospores mL^−1, one hour with peptide (256-0.5 µM), 24 °C, counted after 4 hours on agar slides, biological triplicates; for IC50: concentration at which at least 50% of basidiospores germination was inhibited, read-out: Inhibitory concentration IC50, M. perniciosa basidiospores germination; for Inhibitory concentration IC95, M. perniciosa basidiospores germination: concentration at which at least 95% of basidiospores germination was inhibited
Protocol: The antimicrobial potential of T. cacao IAPs for inhibiting M. perniciosa basidiospores was evaluated. Briefly, 1 × 10^6 basidiospores mL^−1 were incubated for one hour with different concentrations of T. cacao IAPs (256-0.5 µM), at 24 °C, in a final volume of 100 µL. Autoclaved dH20 was used as a control. After incubation, 3 droplets of 10 µL each were placed in a slide coated with agar (1.2% (w/v)). Slides were incubated for 4, 24 and 48 hours at 24 °C. Slides were visualized using a DMRXA light microscope (Leica). Approximately 150–200 basidiospores per droplet from each time point were counted and compared to the control condition, which was defined as 100% germination. All experiments were performed in biological triplicates, with 3 technical repetitions each.

[2] = SC50 = IAP concentration that at least 50% of red blood cells remain intact, 128 µM–0.5 µM tested, PBS, 30 minutes, 37 °C, absorbance 540 nm

| Compound | Minimum inhibitory concentration, Bacillus cereus (Bacillus cereus) | Minimum inhibitory concentration, Bacillus subtilis (Bacillus subtilis) | Minimum inhibitory concentration, Candida albicans (Candida albicans) | Minimum inhibitory concentration, Cryptococcus neoformans (Cryptococcus neoformans) | Minimum inhibitory concentration, Escherichia coli (Escherichia coli) | Minimum inhibitory concentration, Pseudomonas aeruginosa (Pseudomonas aeruginosa) | Minimum inhibitory concentration, Staphylococcus aureus (Staphylococcus aureus) | Hemolytic activity (% ± SD) at 1 µM (human red blood cells) | Hemolytic activity (% ± SD) at 2 µM (human red blood cells) | Hemolytic activity (% ± SD) at 4 µM (human red blood cells) | Hemolytic activity (% ± SD) at 8 µM (human red blood cells) | Hemolytic activity (% ± SD) at 16 µM (human red blood cells) | Hemolytic activity (% ± SD) at 32 µM (human red blood cells) | Hemolytic activity (% ± SD) at 64 µM (human red blood cells) | Hemolytic activity (% ± SD) at 128 µM (human red blood cells) | Hemolytic activity of human red blood cells (%) SC50 (human red blood cells) | IC50 [1] | Inhibitory concentration IC95, M. perniciosa basidiospores germination [1] | other results |
| --- | --- | --- | --- | --- | --- | --- | --- | --- | --- | --- | --- | --- | --- | --- | --- | --- | --- | --- | --- |
| OC(Cn1cncn1)(Cn1cncn1)c1ccc(F)cc1F [Fluconazole, reference compound] |  |  |  |  |  |  |  |  |  |  |  |  |  |  |  |  |  |  | MIC (Candida albicans; Candida albicans, ATCC90028, 48 h, pH 7, read-out: Minimum inhibitory concentration, Candida albicans): 1.63 µM (≈ 0.499 µg/mL); MIC (Cryptococcus neoformans; Cryptococcus neoformans, ATCC28957, 72 h, pH 7, read-out: Minimum inhibitory concentration, Cryptococcus neoformans): 1.63 µM (≈ 0.499 µg/mL) |
| GFKLGRKLVKVFKWII-NH2 [Gr01] | 1.0 µM | 1.0 µM | 1.0 µM | 1.0 µM | 0.5 µM | 3.33 ± 1.15 µM | 0.83 ± 0.29 µM | 0.09 ± 0.01% | 0.00 ± 0.00% | 0.30 ± 0.15% | 1.96 ± 0.89% | 3.82 ± 1.28% | 11.33 ± 1.66% | 33.9 9 ± 5.46% | 51.72 ± 7.33% | 64 µM |  |  | Concentration that induced 50% hemolysis (human red blood cells; red cells of human): 64 µM |
| GLWSTIKQKGKEAAIAAAKAAGQAALGAL-NH2 [DS01, Dermaseptin DS01, reference compound] |  |  |  |  |  |  |  | 0.00 ± 0.00% | 0.19 ± 0.02% | 0.17 ± 0.04% | 0.03 ± 0.01% | 0.48 ± 0.12% | 0.79 ± 0.30% | 3.70 ± 1.34% |  |  | 128 µM | 256 µM | Hemolytic activity of human red blood cells (%) SC50 (human red blood cells; [2]): >128 µM |
| GSLHGFMYKYLKNMVLNLF-NH2 [Tc06] |  |  |  |  |  |  |  | 0.00 ± 0.00% | 0.00 ± 0.00% | 0.00 ± 0.00% | 0.00 ± 0.00% | 0.01 ± 0.00% | 0.77 ± 0.23% | 1.18 ± 0.23% | 7.67 ± 1.69% | >128 µM | 32 µM | 64 µM |  |
| GSLHGFMYKYLKTLVLRLY-NH2 [Zm01] | 64.0 µM | 8.0 µM | 6.67 ± 2.31 µM | 4.0 µM | 13.33 ± 4.61 µM | 16.0 µM | 16 µM | 0.00 ± 0.00% | 0.02 ± 0.00% | 0.00 ± 0.00% | 0.00 ± 0.00% | 0.66 ± 0.14% | 2.45 ± 1.03% | 6.56 ± 1.87% | 15.72 ± 3.48% | >128 µM |  |  |  |
| GSLHGFMYRYLKNMVLNLF-NH2 [Cs01] | 64.0 µM | 8.0 µM | 2.67 ± 1.15 µM | 8.0 µM | 32.0 µM | 32.0 µM | 4.0 µM | 0.10 ± 0.04% | 0.05 ± 0.03% | 0.01 ± 0.00% | 0.09 ± 0.01% | 0.27 ± 0.09% | 0.31 ± 0.15% | 2.18 ± 1.62% | 8.01 ± 2.16% | >128 µM |  |  |  |
| IVNHLVKLFDKGLNSIVNLR-NH2 [Tc05] |  |  |  |  |  |  |  | 0.11 ± 0.02% | 0.07 ± 0.01% | 0.15 ± 0.05% | 0.07 ± 0.04% | 0.50 ± 0.10% | 0.21 ± 0.09% | 0.78 ± 0.47% |  |  | 128 µM | 256 µM | Hemolytic activity of human red blood cells (%) SC50 (human red blood cells; [2]): >128 µM |
